The values below come from patent US20190269705A1, “METHODS AND MATERIALS FOR TREATING GRAFT VERSUS HOST DISEASE” (Regents of the University of Minnesota, priority 2017, published 2019).

Assay [1] has as its system Th1 cells. Description: CD4 T cells in Th1 skewing conditions, flow cytometry. On the technique in general: In flow cytometry, cells or beads pass a laser one at a time.
Assay [2] has as its system Th17 cells. The experiment in a line: CD4 T cells in Th17 skewing conditions, flow cytometry.
The subject of assay [3] is stimulated T cells. Description: Oxygen Consumption Rate (Seahorse) of stimulated CD4 T cells. Format: cell-based, mouse. Conditions: CD4 cells stimulated on CD3/CD28; 1 μM CB839, 5 μM UK5099 injected separately or in combination. How it is done: Experiments were carried out on Agilent Seahorse XF96 bioanalyzer (Agilent). Briefly, wild type CD4+ cells were isolated as previous and activated for 3 days on CD3/CD28 as previously described, or skewed to Th1 and Th17 subsets as described above. T cells were spun onto XF96 Cell-Tak (BD Bioscience, Cat #: 354240) coated plates and rested in Seahorse XF RPMI 1640 media supplemented with glutamine, sodium pyruvate, and glucose. For immediate metabolic response, CB839 and UK5099 were injected separately or in combination, and OCR and ECAR measured.
Experiments were carried out on Agilent Seahorse XF96 bioanalyzer (Agilent). Briefly, wild type CD4+ cells were isolated as previous and activated for 3 days on αCD3/CD28 coated plates as previously described, or skewed to Th1 and Th17 subsets as described above. T cells were isolated and spun onto XF96 Cell-Tak (BD Bioscience, Cat #: 354240) coated plates and rested in Seahorse XF RPMI 1640 media supplemented with glutamine, sodium pyruvate, and glucose. For immediate metabolic response, 1 μM CB839 and 5 μM UK5099 (Cat #: PZ0160-5MG) were injected separately or in combination, and OCR and ECAR measured. For activation response, 1 uM CB839 was injected into IL-7 maintained naïve CD4+ T cells in seahorse medium and allowed to incubate for 20 minutes, followed by soluble αCD3/CD28 injection.

The test system of assay [4] is cGVHD mice. Description: In vivo chronic graft versus host disease (cGVHD) treatment. Further details: species or system mouse. Conditions: treatment Day 28-56 after transplant; for pulmonary function: DON 1.6 mg/kg EOD IP, metformin 150 mg/kg daily IP. Here is the method: Induction of Graft vs Host Disease (cGVHD) was performed as described elsewhere (see, e.g., Panoskaltsis-Mortari et al., 2007 Am J Respir Crit Care Med. 176(7):713-723). Briefly, mice were lethally irradiated the day before bone marrow (BM) transplant. Mice were dosed with cyclophosphamide (Cytoxan, Bristol Myers Squibb, Seattle Wash.) at 120 mg/kg/day on days −3 and −2. Recipient irradiated mice were transplanted via caudal vein with 10×10^6 T-cell depleted allogeneic marrow with 73.5×10^3 purified splenic T cells from WT or GLS KO mice, or control (no CD4+ T cells). Mice were assessed for lung elasticity, resistance, and compliance at Day 28 by whole body plethysmography using the Flexivent system (Scireq, Montreal, PQ, Canada). Histological assessment of GVHD was assessed as described elsewhere (see, e.g., Blazar et al., 1998 Blood 92(10):3949-3959).
6-Diazo-5-Oxo-L-Norleucine (DON) was administered to mice conditioned with cyclophosphamide (Cytoxan, Bristol Myers Squibb, Seattle Wash.) and total body irradiation.
To determine if inhibiting GLS can improve cGVHD, DON (with or without metformin) was administered to mice that were transplanted with WT T cell depleted bone marrow with WT purified splenic T cells beginning on day 28 after transplant.

Where [5] appears, read: Th1, CB839 + 1.5 mM cell-permeable α-KG analog.
Setting [6] is: Th17, CB839 + cell-permeable α-KG analog.

Entries after “also recorded” stand apart in the source; their conditions may differ.

As to `CCOC(=O)CCNc1cc(N2CCc3ccccc3CC2)nc(-c2ccccn2)n1` [GSKJ4], the cytokine production entry is listed as “increased cytokine production” in assay [1] (Th1, day five, JMJD3 inhibitor) and “increased cytokine production in Th1 but not Th17 cells” in assay [2] (Th17, day five, JMJD3 inhibitor).
Turning to `COC(=O)CCC(=O)C(=O)OC` [DMaKG, dimethyl-2-oxoglutarate], in assay [1] (setting [5]), the “IFNγ production of CB839-treated Th1 cells” value is on record as “rectified” and the “Tbet expression of CB839-treated Th1 cells” value is on record as “rectified”. Besides, the “IFNγ production of CB839-treated Th1 cells” value in assay [1] (Th1, CB839 + 1.5 mM cell-permeable α-KG analog, listed as DM2OG) is “reduced IFNγ production of CB839-treated to control levels”. In assay [1] (Th1, α-KG analog alone), the “cytokine production in Th1 cells, by itself” value is on record as “did not reduce cytokine production”. Moreover, in assay [2] (setting [6]), the “IL17 production of CB839-treated Th17 cells” value is “unchanged or further decreased” and the “RORγt of CB839-treated Th17 cells” value is on record as “unchanged or further decreased”.
As for `CC(=O)N[C@@H](CS)C(=O)O` [NAC, N-acetyl cysteine], the IFNγ secretion result in assay [1] (Th1, NAC alone) was “decreasing IFNγ secretion”. Moreover, in assay [1] (Th1, NAC combined with CB839), the “production of IFNγ” value is recorded as “did not, however, increase”. For the same molecule, the H3K27 trimethylation entry in assay [1] (Th1 cells + NAC) is “no effect”; in assay [2] (GLS-deficient (CB839) Th17 cells + NAC), “restored”. In assay [2] (Th17, NAC alone), the “expression of IL17” value was “modestly reduced”. Also, the “expression of RORγt” value in assay [2] (Th17, NAC alone) is “modestly reduced”; in assay [2] (Th17, NAC combined with CB839), “partially restored to control levels”. In assay [2] (Th17, NAC combined with CB839), the “production of IL17” value is listed as “partially restored to control levels”.
As for `N#C/C(=C\c1cn(-c2ccccc2)c2ccccc12)C(=O)O` [UK5099], the “oxygen consumption (T cell respiration)” value in assay [3] is given as “neither UK5099 nor CB839 were sufficient on their own to reduce T cell respiration; also recorded: neither UK5099 nor CB839 were sufficient to reduce T cell respiration alone”.
Consider `CN(C)C(=N)N=C(N)N` [metformin], for which, in assay [4], the pulmonary function result is “improved pulmonary function”.
For the molecule `[N-]=[N+]=CC(=O)CC[C@H](N)C(=O)O` [DON, 6-Diazo-5-Oxo-L-Norleucine], in assay [4], the “GC B cell frequency” value is recorded as “decreased GC B cell frequency; also recorded: decrease GC B cell frequencies; also recorded: reduced GC B cells”, the TFH frequency result was “increased TFH frequency”, the TFR frequencies result is listed as “increased TFR frequencies” and the “TFR:TFH ratios” value is “improved TFR:TFH ratios”. For the same molecule, in assay [4], the percentage of lymphocytes result was “reduced the percentage of lymphocytes; also recorded: reduces lymphocytes” and the pulmonary function entry is “improve pulmonary functions”.
Regarding `CO[C@H]1C[C@@H]2CC[C@@H](C)[C@@](O)(O2)C(=O)C(=O)N2CCCC[C@H]2C(=O)O[C@H]([C@H](C)C[C@@H]2CC[C@@H](O)[C@H](OC)C2)CC(=O)[C@H](C)/C=C(\C)[C@@H](O)[C@@H](OC)C(=O)[C@H](C)C[C@H](C)/C=C/C=C/C=C/1C` [rapamycin], the “effect on control Th1 cells” value in assay [1] (rapamycin added on day 3 after activation) is reported as “no effect”.
